{
  "source": "patent US9968698B2",
  "about": "“Charged singlet-oxygen sensitizers and oppositely-charged surfactants” (STC.UNM, priority 2013, dated 2018)",
  "key": {"E. coli (ATCC 29425)": {"system": "E. coli (ATCC 29425)", "experiment": "Live/dead flow cytometry biocidal assay with samples UVA pre-irradiated before bacterial exposure, Example 2", "assay_type": "cell-based, Escherichia coli", "settings": "for biocidal activity vs. E. coli after pre-irradiation: then 30 minutes UVA with bacteria", "description": "(§1) All media and buffers were prepared using deionized water with a resistivity exceeding 18 MΩ*cm. Nutrient Broth 234000 (Difco) was prepared according to manufacturer's instructions, and Nutrient Agar was prepared upon the addition of 8 g/L Bacto agar (Difco). Both S. aureus (ATCC 25923) and E. coli (ATCC 29425) were grown from glycerol-preserved stock. The frozen stock aliquots were generated from first-generation cultures of the original ATCC lyophilate, which were grown in Nutrient Broth containing 20% glycerol, and subsequently stored at −70° C. The cells were grown by inoculating the glycerol stock on Difco Nutrient Agar for 24 hours at 37° Celsius. For biocidal testing, S. aureus and E. coli cells were scraped off the agar plate with a flame-sterilized wire and transferred to nutrient broth. Cells were incubated in an Orbital Incubator Shaker (American Instruments, Lafayette, Calif.) at 37° Celsius in nutrient broth with rapid shaking (250 rpm) for 18 hours. Following the 18-hour incubation period, cells were separated from the nutrient broth by two 15-minute centrifugations at 4,400 rpm, each of which was followed by removal of the supernatant and re-suspension in 30 mL 0.85% NaCl.\n(§2) Flow cytometry was implemented to determine the cell concentration of the 0.85% NaCl-suspended bacterial stock solutions. An Accuri C6 flow cytometer (Becton Dickinson, Franklin Lakes, N.J.) equipped with a blue laser that excites at 488 nm was utilized. Two filters were used: a green fluorescence filter (FL-1: 530 nm) and a red fluorescence filter (FL-3: 670 nm long pass). Two thresholds were used, a primary threshold and a secondary threshold. […] Flow cytometer core size in all experiments was 10 μm, with a flow rate of 14 μL/minute. Using these settings, 20 μL of un-stained stock solution was sufficient for identifying the stock concentration of cells.\nFor biocidal testing, the stock solution was either diluted or concentrated to 2×10^7 cells/mL. Equal volumes of the sample and bacterial solution were added to glass tubes prior to analysis. Cells were stained with 5 mM SYTO 21 (live stain; Life Technologies, Grand Island, N.Y.) and […] Propidium iodide (dead stain; Life Technologies, Grand Island, N.Y.) for 15-30 minutes prior to flow cytometry anaylsis. An example of the flow cytometry gating scheme for E. coli is shown below, in FIG. 14. […]\n(§3) The solid compound OPE 1, as a dichloride salt, was dissolved in filtered water with a resistivity of 18 MΩ*cm to a final concentration of 10 μM. […] Progress of the photolysis was monitored by UV-visible absorption spectroscopy with a Molecular Devices Spectramax M5 spectrophotometer (Molecular Devices, Sunnyvale, Calif.). […]"}, "S. aureus (ATCC 25923)": {"system": "S. aureus (ATCC 25923)", "experiment": "Live/dead flow cytometry biocidal assay with samples UVA pre-irradiated before bacterial exposure, Example 2", "assay_type": "cell-based, Staphylococcus aureus", "settings": "for biocidal activity vs. S. aureus after pre-irradiation: then 15 minutes UVA with bacteria", "description": "as §1\nas §2, with “Using these settings, 20 μL of un-stained stock solution was sufficient for identifying the stock concentration of cells.” left out\nas §3"}, "[1]": {"settings": "in water; cited from earlier work"}, "[2]": {"system": "Staphylococcus aureus (ATCC 10832)", "experiment": "Biocidal testing by standard plating (colony counts relative to UVA negative control), Example 1", "assay_type": "cell-based", "settings": "FIG. 4", "description": "(§4) All media and buffers were prepared with deionized water with a resistivity of at least 18 MΩ cm. Nutrient broth 234000 (Difco) was prepared according to manufacturer's instructions. Nutrient agar was prepared upon the addition of 8 g/L bacto agar (Difco). Staphylococcus aureus (ATCC 10832) and Escherichia coli (ATCC 29425) were both grown from glycerol-preserved stock which originated from first-generation cultures of original ATCC lyophilates grown in nutrient broth (containing 20% glycerol) and subsequently stored at −70° C. Cells of the aforementioned strains were grown upon the inoculation of glycerol stock on Difco nutrient agar at 37° C. for 24 hours. Cell culture preparation for biocidal testing entailed scraping S. aureus or E. coli colonies off their agar plates and transferring them to nutrient broth for growth. Cells were then incubated in an Orbital Incubator Shaker (American Instruments, Lafayette, Calif.) for 18 h at 37° C. with rapid shaking (250 rpm). Following the incubation period, cells were washed by two 15 min centrifugations at 4,400 rpm; in each case, supernatant was replaced by 30 mL of 0.85% NaCl following pellet formation.\n(§5) The bacterial stock solution was either diluted or concentrated to 2×10^7 cells/mL. Samples were diluted by the addition of 0.85% NaCl, while concentrating the sample entailed centrifugation to pellet the cells, followed by removal of the necessary amount of supernatant and subsequent resuspension of the pellet by vortexing. 500 μL of bacterial solution was added to glass vials with 500 μL of sample solution to reach a final volume of 1 mL prior to analysis. Samples tested contained 10 μM OPE, 40 μM TTAB, or both 10 μM OPE and 40 μM TTAB. Biocidal activity under UVA irradiation was determined using a Luzchem LZC-ORG photoreactor (Luzchem Research, Ontario, Canada). This photoreactor was configured with 10 UVA lamps (0.975 mW/cm^2 over 316-400 nm) with a fan-powered exhaust to keep a stable temperature of 28° C. and a rotating carousel for homogeneous irradiation of samples. Samples exposed in the dark were kept at room temperature, 25° C. 70% Ethanol was used as a positive control, and a 60 minute UVA-irradiated sample of bacteria was used as a negative control.\n(§6) The results of the live/dead assay were verified by confocal fluorescence microscopy using a Zeiss Confocal microscope with an Ar laser (488 nm) and a HeNe laser ([…]) as excitation sources. Standard plating techniques were utilized to validate flow cytometry data. This entailed pipetting and spreading 50 μL aliquots of diluted, unstained sample, onto nutrient agar plates. The plates were incubated at 37° C. for 18 hours, colonies were counted, and viabilities were calculated relative to the UVA negative control. […]"}, "[3]": {"system": "Staphylococcus aureus (ATCC 10832)", "experiment": "Live/dead flow cytometry biocidal assay, Example 1", "assay_type": "cell-based", "settings": "60 minutes, 10 μM OPE", "description": "All media and buffers were prepared with deionized water with a resistivity of at least 18 MΩ cm. Nutrient broth 234000 (Difco) was prepared according to manufacturer's instructions. Nutrient agar was prepared upon the addition of 8 g/L bacto agar (Difco). Staphylococcus aureus (ATCC 10832) and Escherichia coli (ATCC 29425) were both grown from glycerol-preserved stock which originated from first-generation cultures of original ATCC lyophilates grown in nutrient broth (containing 20% glycerol) and subsequently stored at −70° C. Cells of the aforementioned strains were grown upon the inoculation of glycerol stock on Difco nutrient agar at 37° C. for 24 hours. […]\nThe bacterial stock solution was either diluted or concentrated to 2×10^7 cells/mL. […] Biocidal activity under UVA irradiation was determined using a Luzchem LZC-ORG photoreactor (Luzchem Research, Ontario, Canada). […]\nFlow cytometry gating and analysis were carried out as performed in previous studies of biocidal activity of OPEs (see Z. Malik, J. Hanania, Y. Nitzan New trends in photobiology bactericidal effects of photoactivated porphyrins—An alternative approach to antimicrobial drugs, Journal of Photochemistry and Photobiology B: Biology 1990, 5 (3-4), 281-293). […] 100,000 events were recorded in each sample. […]"}, "E. coli [4]": {"system": "E. coli", "experiment": "Confocal fluorescence microscopy of exposed bacteria, Example 2", "assay_type": "cell-based, Escherichia coli", "settings": "UVA, versus untreated cells, FIG. 20"}, "S. aureus [5]": {"system": "S. aureus", "experiment": "Confocal microscopy of bacteria irradiated with UVA for 15 minutes, Example 2", "assay_type": "cell-based, Staphylococcus aureus", "settings": "UVA light for 15 minutes, FIG. 22", "description": "The solid compound OPE 1, as a dichloride salt, was dissolved in filtered water with a resistivity of 18 MΩ*cm to a final concentration of 10 μM. The solution was then exposed to UVA radiation via a Luzchem LZC-ORG photoreactor (Luzchem Research, Ontario, Canada) in a quartz tube or cuvette. This photoreactor was configured with 10 LZC-UVA lamps (>5.3 mW-cm^−2 over 316-400 nm, Luzchem Research, Ontario, Canada) with a fan-powered exhaust to keep a stable temperature and a carousel for homogeneous irradiation of samples. Progress of the photolysis was monitored by UV-visible absorption spectroscopy with a Molecular Devices Spectramax M5 spectrophotometer (Molecular Devices, Sunnyvale, Calif.). Sodium dodecyl sulfate (SDS) was obtained from Sigma Aldrich. For the OPE 1-SDS complexes, 10 μM OPE 1 was mixed with 40 μM SDS, 0.24% of the critical micelle concentration (CMC). S. aureus samples were exposed to a OPE 1-SDS complex where the concentration of SDS was 0.33 mM, as they were much more resilient to killing caused by SDS. Samples were irradiated for 0, 30, 60, and 120 minutes prior to exposure to bacteria. Once exposed to OPE 1 or 1-SDS complex, E. coli and S. aureus samples were irradiated with UVA in the photoreactor for 30 minutes and 15 minutes, respectively."}, "[6]": {"settings": "UVA photolysis under the same conditions, without surfactant; cited from earlier work"}, "[7]": {"system": "Escherichia coli (ATCC 29425)", "experiment": "Biocidal testing by standard plating (colony counts relative to UVA negative control), Example 1", "assay_type": "cell-based", "settings": "40 μM TTAB alone, one hour of exposure, FIG. 5", "description": "as §4, §5, §6"}, "S. aureus [8]": {"system": "S. aureus", "settings": "reported value, against S. aureus; cited from earlier work"}, "E. coli [9]": {"system": "E. coli", "settings": "reported value, against E. coli; cited from earlier work"}, "[10]": {"settings": "0.33 mM SDS alone, control experiment"}, "[11]": {"settings": "10 μM OPE 1, 30 minutes of UVA irradiation prior to bacterial exposure"}, "[12]": {"settings": "10 μM OPE 1, 2 hours of UVA pre-exposure"}},
  "note": "Where “and” joins values, the source holds several entries; their conditions need not be identical. Identical values can stand only once.",
  "data": [
    {"compound": "CCCCCCCCCCCCOS(=O)(=O)[O-].[Na+]", "note": "[SDS, sodium dodecyl sulfate]", "values": [
      {"measurement": "E. coli cells killed", "setting": "E. coli (ATCC 29425); 40 μM SDS alone, control experiment", "value": "~40", "unit": "%"},
      {"measurement": "effect on E. coli", "setting": "E. coli (ATCC 29425); [10]", "value": "significant killing"},
      {"measurement": "effect on S. aureus", "setting": "S. aureus (ATCC 25923); [10]", "value": "viable"},
      {"measurement": "critical micelle concentration", "setting": "[1]", "value": "~8.3", "unit": "mM"}
    ]},
    {"compound": "O=S(=O)(O)CCCOc1ccc(C#Cc2ccc(C#Cc3ccc(OCCCS(=O)(=O)O)cc3)cc2)cc1", "note": "[OPE]", "values": [
      {"measurement": "S. aureus killed", "setting": "[2]; in the dark, 60 minutes, 10 μM OPE (complex: plus 40 μM TTAB)", "value": 41.3, "unit": "%"},
      {"measurement": "S. aureus killed", "setting": "[2]; in the light (UVA), 60 minutes, 10 μM OPE (complex: plus 40 μM TTAB)", "value": 68.1, "unit": "%"},
      {"measurement": "S. aureus killed (immediate killing by flow cytometry)", "setting": "[3]; in the dark", "value": 23.2, "unit": "%"},
      {"measurement": "S. aureus killed (immediate killing by flow cytometry)", "setting": "[3]; under UVA irradiation", "value": 35.1, "unit": "%"}
    ]},
    {"compound": "C[N+](C)(C)CCOc1ccc(C#Cc2ccc(C#Cc3ccc(OCC[N+](C)(C)C)cc3)cc2)cc1", "note": "[OPE 1]", "values": [
      {"measurement": "biocidal activity vs. E. coli after pre-irradiation", "setting": "E. coli (ATCC 29425); [11]", "value": "significant drop in biocidal activity"},
      {"measurement": "biocidal activity vs. E. coli after pre-irradiation", "setting": "E. coli (ATCC 29425); [12]", "value": "nearly lost"},
      {"measurement": "biocidal activity vs. S. aureus after pre-irradiation", "setting": "S. aureus (ATCC 25923); [11]", "value": "significant drop in biocidal activity"},
      {"measurement": "biocidal activity vs. S. aureus after pre-irradiation", "setting": "S. aureus (ATCC 25923); [12]", "value": "entirely lost"},
      {"measurement": "filamentous growth of E. coli (stress response)", "setting": "E. coli [4]", "value": "more likely to undergo filamentous growth than untreated cells"},
      {"measurement": "clustering of S. Aureus (stress response)", "setting": "S. aureus [5]", "value": "clusters of large numbers of cells"},
      {"measurement": "time of photolysis until absorbance diminished and fluorescence completely quenched", "setting": "[6]", "value": "≤ 2", "unit": "min"}
    ]},
    {"compound": "CCCCCCCCCCCCCC[N+](C)(C)C.[Br-]", "note": "[TTAB, tetradecyl trimethylammonium bromide]", "values": [
      {"measurement": "E. coli killed", "setting": "[7]", "value": "56.1% and 56%"},
      {"measurement": "S. aureus killed", "setting": "[2]; 40 μM TTAB alone, one hour of exposure", "value": "8.7% and 9%"},
      {"measurement": "minimum inhibitory concentration", "setting": "S. aureus [8]", "value": 5, "unit": "mM"},
      {"measurement": "minimum inhibitory concentration", "setting": "E. coli [9]", "value": 5, "unit": "mM"},
      {"measurement": "critical micelle concentration", "setting": "[1]", "value": 4.3, "unit": "mM"}
    ]}
  ]
}
